Experimental data: patent US9969752B2, “Inhibitors of HIF prolyl hydroxylase” (MERCK SHARP & DOHME CORP., priority 2014, dated 2018)

What follows are compounds tested against T1, Human HIF-PHD2 (Homo sapiens, UniProt Q9GZT9) (assay: Inhibition of the hydroxylation of a HIF peptide by PHD2 (time resolved fluorescence, 384-well)). Details: FLAG-tagged full length PHD2; 0.2 μM 2-oxoglutarate, 0.5 μM HIF-1α peptide; 45 minutes at room temperature; read-out: Human HIF-PHD2 IC50.
T1 construct: FLAG-tagged full length PHD2 expressed in and purified from baculovirus-infected Sf9 cells; FLAG; made in house; host or cells: baculovirus-infected Sf9 cells
T1 sequence (Q9GZT9 whole entry): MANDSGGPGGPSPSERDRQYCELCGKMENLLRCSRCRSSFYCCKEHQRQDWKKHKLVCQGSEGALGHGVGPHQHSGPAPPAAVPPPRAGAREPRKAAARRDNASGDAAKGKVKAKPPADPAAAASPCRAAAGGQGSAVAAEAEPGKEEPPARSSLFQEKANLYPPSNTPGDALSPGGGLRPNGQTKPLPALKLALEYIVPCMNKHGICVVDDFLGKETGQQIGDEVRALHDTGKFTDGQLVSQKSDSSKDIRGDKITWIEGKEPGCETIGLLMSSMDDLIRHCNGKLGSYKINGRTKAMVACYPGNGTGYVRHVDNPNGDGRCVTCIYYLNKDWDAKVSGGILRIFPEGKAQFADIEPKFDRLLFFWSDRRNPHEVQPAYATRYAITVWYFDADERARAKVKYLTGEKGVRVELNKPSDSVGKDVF
Assay type: biochemical
Description: To each well of a 384-well plate, 1 μL of test compounds in DMSO (final concentration ranging from 0.3 nM to 10 uM) were added into 20 μl of assay buffer (50 mM Tris pH 7.4/0.01% Tween-20/0.1 mg/ml bovine serum albumin/10 μM ferrous sulfate/1 mM sodium ascorbate/20 μg/ml catalase) containing 0.15 μg/ml FLAG-tagged full length PHD2 expressed in and purified from baculovirus-infected Sf9 cells. After a 5 min preincubation at room temperature, the enzymatic reactions were initiated by the addition of 4 μL of substrates {final concentrations of 0.2 μM 2-oxoglutarate and 0.5 μM HIF-1α peptide biotinyl-[…] […] After incubation for 45 minutes at room temperature, the reactions were terminated by the addition of a 25 μL quench/detection mix to a final concentration of 1 mM ortho-phenanthroline, 0.1 mM EDTA, 0.5 nM anti-(His)6 LANCE reagent (Perkin-Elmer Life Sciences), 100 nM AF647-labeled streptavidin (Invitrogen), and 2 μg/ml (His)6-VHL complex {S. Tan Protein Expr. Purif.
`N#Cc1ccc2c3c1c(O)c(C(=O)NCC(=O)O)c(=O)n3CC(c1ccc(C(F)(F)F)cc1)O2` (stereo not shown) [Example 13, 2-(8-Cyano-7-hydroxy-5-oxo-2-(4-(trifluoromethyl)phenyl)-3,5-dihydro-2H-[1,4]oxazino[2,3,4-ij]quinoline-6-carboxamido)acetic acid] was tested, and the IC50 was 1 nM. Compound `O=C(O)CNC(=O)c1c(O)c2cc(Br)cc3c2n(c1=O)CC(c1ccc(C(F)(F)F)cc1)O3` (stereo not shown) [Example 16, 2-(9-Bromo-7-hydroxy-5-oxo-2-(4-(trifluoromethyl)phenyl)-3,5-dihydro-2H-[1,4]oxazino[2,3,4-ij]quinoline-6-carboxamido)acetic acid] has an IC50 of 4.4 nM. `Cc1cc2c3c(c1)c(O)c(C(=O)NCC(=O)O)c(=O)n3CC(c1ccc(C(F)(F)F)cc1)O2` (stereo not shown) [Example 19, 2-(7-Hydroxy-9-methyl-5-oxo-2-(4-(trifluoromethyl)phenyl)-3,5-dihydro-2H-[1,4]oxazino[2,3,4-ij]quinoline-6-carboxamido)acetic acid] showed an IC50 of 5.6 nM. `O=C(O)CNC(=O)c1c(O)c2ccc(Br)c3c2n(c1=O)CC(c1ccc(C(F)(F)F)cc1)O3` (stereo not shown) [Example 22, 2-(10-Bromo-7-hydroxy-5-oxo-2-(4-(trifluoromethyl)phenyl)-3,5-dihydro-2H-[1,4]oxazino[2,3,4-ij]quinoline-6-carboxamido)acetic acid] gave an IC50 of 2.3 nM. `Cc1ccc2c(O)c(C(=O)NCC(=O)O)c(=O)n3c2c1OC(c1ccc(C(F)(F)F)cc1)C3` (stereo not shown) [Example 25, 2-(7-Hydroxy-10-methyl-5-oxo-2-(4-(trifluoromethyl)phenyl)-3,5-dihydro-2H-[1,4]oxazino[2,3,4-ij]quinoline-6-carboxamido)acetic acid] was tested, and the IC50 was 5.4 nM. For `O=C(O)CNC(=O)c1c(O)c2c(Br)ccc3c2n(c1=O)C(Cc1ccc(C(F)(F)F)cc1)CO3` (stereo not shown) [Example 26, 2-(8-bromo-7-hydroxy-5-oxo-3-(4-(trifluoromethyl)benzyl)-3,5-dihydro-2H-[1,4]oxazino[2,3,4-ij]quinoline-6-carboxamido)acetic acid], the IC50 was 8.1 nM. `O=C(O)CNC(=O)c1c(O)c2ccc(Br)c3c2n(c1=O)C(Cc1ccc(C(F)(F)F)cc1)CO3` (stereo not shown) [Example 27, 2-(10-Bromo-7-hydroxy-5-oxo-3-(4-(trifluoromethyl)benzyl)-3,5-dihydro-2H-[1,4]oxazino[2,3,4-ij]quinoline-6-carboxamido)acetic acid] was tested, and the IC50 was 5.7 nM. Work on `CS(=O)(=O)c1ccc2c3c1c(O)c(C(=O)NCC(=O)O)c(=O)n3C(Cc1ccc(C(F)(F)F)cc1)CO2` (stereo not shown) [Example 28, 2-(7-Hydroxy-8-(methylsulfonyl)-5-oxo-3-(4-(trifluoromethyl)benzyl)-3,5-dihydro-2H-[1,4]oxazino[2,3,4-ij]quinoline-6-carboxamido)acetic acid] yielded an IC50 of 42 nM. Work on `N#Cc1ccc2c3c1c(O)c(C(=O)NCC(=O)O)c(=O)n3C(Cc1ccc(C(F)(F)F)cc1)CO2` (stereo not shown) [Example 29, 2-(8-Cyano-7-hydroxy-5-oxo-3-(4-(trifluoromethyl)benzyl)-3,5-dihydro-2H-[1,4]oxazino[2,3,4-ij]quinoline-6-carboxamido)acetic acid] yielded an IC50 of 1.3 nM. `Cc1ccc2c3c1c(O)c(C(=O)NCC(=O)O)c(=O)n3C(Cc1ccc(C(F)(F)F)cc1)CO2` (stereo not shown) [Example 30, 2-(7-Hydroxy-8-methyl-5-oxo-3-(4-(trifluoromethyl)benzyl)-3,5-dihydro-2H-[1,4]oxazino[2,3,4-ij]quinoline-6-carboxamido)acetic acid] gave an IC50 of 39 nM. Work on `CS(=O)(=O)c1ccc2c(O)c(C(=O)NCC(=O)O)c(=O)n3c2c1OCC3Cc1ccc(C(F)(F)F)cc1` (stereo not shown) [Example 31, 2-(7-Hydroxy-10-(methylsulfonyl)-5-oxo-3-(4-(trifluoromethyl)benzyl)-3,5-dihydro-2H-[1,4]oxazino[2,3,4-ij]quinoline-6-carboxamido)acetic acid] yielded an IC50 of 1 nM. For `N#Cc1ccc2c(O)c(C(=O)NCC(=O)O)c(=O)n3c2c1OCC3Cc1ccc(C(F)(F)F)cc1` (stereo not shown) [Example 32, 2-(10-Cyano-7-hydroxy-5-oxo-3-(4-(trifluoromethyl)benzyl)-3,5-dihydro-2H-[1,4]oxazino[2,3,4-ij]quinoline-6-carboxamido)acetic acid], the IC50 was 1.3 nM. `Cc1ccc2c(O)c(C(=O)NCC(=O)O)c(=O)n3c2c1OCC3Cc1ccc(C(F)(F)F)cc1` (stereo not shown) [Example 33, 2-(7-Hydroxy-10-methyl-5-oxo-3-(4-(trifluoromethyl)benzyl)-3,5-dihydro-2H-[1,4]oxazino[2,3,4-ij]quinoline-6-carboxamido)acetic acid] gave an IC50 of 17 nM. `CC(=O)c1cc2c3c(c1)c(O)c(C(=O)NCC(=O)O)c(=O)n3C(Cc1ccc(C(F)(F)F)cc1)CO2` (stereo not shown) [Example 34, 2-(9-acetyl-7-hydroxy-5-oxo-3-(4-(trifluoromethyl)benzyl)-3,5-dihydro-2H-[1,4]oxazino[2,3,4-ij]quinoline-6-carboxamido)acetic acid] gave an IC50 of 3.2 nM. `CC(O)c1cc2c3c(c1)c(O)c(C(=O)NCC(=O)O)c(=O)n3C(Cc1ccc(C(F)(F)F)cc1)CO2` (stereo not shown) [Example 35, 2-(7-Hydroxy-9-(1-hydroxyethyl)-5-oxo-3-(4-(trifluoromethyl)benzyl)-3,5-dihydro-2H-[1,4]oxazino[2,3,4-ij]quinoline-6-carboxamido)acetic acid] showed an IC50 of 12 nM. Compound `CC(C)(O)c1cc2c3c(c1)c(O)c(C(=O)NCC(=O)O)c(=O)n3C(Cc1ccc(C(F)(F)F)cc1)CO2` (stereo not shown) [Example 36, 2-(7-Hydroxy-9-(2-hydroxypropan-2-yl)-5-oxo-3-(4-(trifluoromethyl)benzyl)-3,5-dihydro-2H-[1,4]oxazino[2,3,4-ij]quinoline-6-carboxamido)acetic acid] has an IC50 of 17 nM. With `N#Cc1ccc2c(O)c(C(=O)NCC(=O)O)c(=O)n3c2c1OCC3` [Example 37, 2-(10-cyano-7-hydroxy-5-oxo-3,5-dihydro-2H-[1,4]oxazino[2,3,4-ij]quinoline-6-carboxamido)acetic acid] the IC50 was 1.5 nM. Work on `CS(=O)(=O)c1ccc2c(O)c(C(=O)NCC(=O)O)c(=O)n3c2c1OCC3` [Example 38, 2-(7-Hydroxy-10-(methylsulfonyl)-5-oxo-3,5-dihydro-2H-[1,4]oxazino[2,3,4-ij]quinoline-6-carboxamido)acetic acid] yielded an IC50 of 1.6 nM. Work on `Cc1ccc2c(O)c(C(=O)NCC(=O)O)c(=O)n3c2c1OCC3` [Example 39, 2-(7-Hydroxy-10-methyl-5-oxo-3,5-dihydro-2H-[1,4]oxazino[2,3,4-ij]quinoline-6-carboxamido)acetic acid] yielded an IC50 of 12 nM. Work on `Cc1cc2c3c(c1)c(O)c(C(=O)NCC(=O)O)c(=O)n3CCO2` [Example 43, 2-(7-hydroxy-9-methyl-5-oxo-3,5-dihydro-2H-[1,4]oxazino[2,3,4-ij]quinoline-6-carboxamido)acetic acid] yielded an IC50 of 24 nM. Work on `N#Cc1ccc2c(O)c(C(=O)NCC(=O)O)c(=O)n3c2c1CCC3` [Example 44, 2-(8-Cyano-1-hydroxy-3-oxo-3,5,6,7-tetrahydropyrido[3,2,1-ij]quinoline-2-carboxamido)acetic acid] yielded an IC50 of 0.9 nM. `CS(=O)(=O)c1ccc2c(O)c(C(=O)NCC(=O)O)c(=O)n3c2c1CCC3` [Example 45, 2-(1-Hydroxy-8-(methylsulfonyl)-3-oxo-3,5,6,7-tetrahydropyrido[3,2,1-ij]quinoline-2-carboxamido)acetic acid] was tested, and the IC50 was 1.1 nM. In the case of `Cc1ccc2c(O)c(C(=O)NCC(=O)O)c(=O)n3c2c1CCC3` [Example 46, 2-(1-Hydroxy-8-methyl-3-oxo-3,5,6,7-tetrahydropyrido[3,2,1-ij]quinoline-2-carboxamido)acetic acid], the IC50 is reported as 18 nM. With `N#Cc1cc2c3c(c1)c(O)c(C(=O)NCC(=O)O)c(=O)n3CCC2` [Example 48, 2-(9-Cyano-1-hydroxy-3-oxo-3,5,6,7-tetrahydropyrido[3,2,1-ij]quinoline-2-carboxamido)acetic acid] the IC50 was 2.6 nM. For `CS(=O)(=O)c1cc2c3c(c1)c(O)c(C(=O)NCC(=O)O)c(=O)n3CCC2` [Example 49, 2-(1-Hydroxy-9-(methylsulfonyl)-3-oxo-3,5,6,7-tetrahydropyrido[3,2,1-ij]quinoline-2-carboxamido)acetic acid], the IC50 was 1.4 nM. For `O=C(O)CNC(=O)c1c(O)c2ccnc3c2n(c1=O)CC(c1ccc(C(F)(F)F)cc1)O3` (stereo not shown) [Example 51, 2-(7-Hydroxy-5-oxo-2-(4-(trifluoromethyl)phenyl)-3,5-dihydro-2H-[1,4]oxazino[2,3,4-ij][1,7]naphthyridine-6-carboxamido)acetic acid], the IC50 was 13 nM.

Same assay, conditions: FLAG-tagged full length PHD2; 0.2 μM 2-oxoglutarate, 0.5 μM HIF-1α peptide; 45 minutes at room temperature; read-out: MS m/z (M + 1)+ and human HIF-PHD2 IC50
`O=C(O)CNC(=O)c1c(O)c2ccc(-c3ccccc3)c3c2n(c1=O)CCO3` [Example 40, 2-(7-hydroxy-5-oxo-10-phenyl-3,5-dihydro-2H-[1,4]oxazino[2,3,4-ij]quinoline-6-carboxamido)acetic acid] gave an IC50 of 1.6 nM.

Same assay, conditions: Human HIF-PHD2 IC50, FLAG-tagged full length PHD2; 0.2 μM 2-oxoglutarate, 0.5 μM HIF-1α peptide; 45 minutes at room temperature
With `O=C(O)CNC(=O)c1c(O)c2cc(Br)cc3c2n(c1=O)CCC3` [Example 47, 2-(9-Bromo-1-hydroxy-3-oxo-3,5,6,7-tetrahydropyrido[3,2,1-ij]quinoline-2-carboxamido)acetic acid] the IC50 was 99 nM.
